In article PMC10771525 (Communications Biology, 2024):
Where no end group is shown, it is not given here.

What was measured:
CHRM4 = CHRM4 (Homo sapiens, UniProt P08173); test: GPCR panel (control), Arrestin, CHO-K1; assay type: cell-based; details: reference agonist
CHRM5 = CHRM5 (Homo sapiens, UniProt P08912); test: GPCR panel (control), Arrestin, CHO-K1; assay type: cell-based; details: reference agonist
CHRM2 = CHRM2 (Homo sapiens, UniProt P08172); details: reference agonist, CHRM2, CHO-K1, Arrestin
CNR1 = CNR1 (Homo sapiens, UniProt P21554); details: reference agonist, CNR1, CHO-K1, Arrestin
CNR2 = CNR2 (Homo sapiens, UniProt P34972); details: reference agonist, CNR2, CHO-K1, Arrestin
DRD2L = DRD2L (Homo sapiens, UniProt P14416); details: reference agonist, CHO-K1, Arrestin
DRD2S = DRD2S (Homo sapiens, UniProt P14416); details: reference agonist, CHO-K1, Arrestin
DRD4 = DRD4 (Homo sapiens, UniProt P21917); details: reference agonist, DRD4, CHO-K1, Arrestin
GPR120 = GPR120 (Homo sapiens, UniProt Q5NUL3); test: GPCR panel (control), Arrestin, CHO-K1; assay type: cell-based; details: reference agonist
HRH2 = HRH2 (Homo sapiens, UniProt P25021); details: reference agonist, HRH2, CHO-K1, Arrestin
ADRA1B = ADRA1B (Homo sapiens, UniProt P35368); test: GPCR panel (control), Arrestin, CHO-K1; assay type: cell-based; details: reference agonist
PTGER2 = PTGER2 (Homo sapiens, UniProt P43116); test: GPCR panel (control), Arrestin, CHO-K1; assay type: cell-based; details: reference agonist
PTGER3 = PTGER3 (Homo sapiens, UniProt P43115); test: GPCR panel (control), Arrestin, CHO-K1; assay type: cell-based; details: reference agonist
PTGER4 = PTGER4 (Homo sapiens, UniProt P35408); test: GPCR panel (control), Arrestin, HEK-293; assay type: cell-based; details: reference agonist, PTGER4, HEK-293, Arrestin
TACR3 = target: T1, TACR3 (Homo sapiens, UniProt P29371); test: GPCR panel (control), Arrestin, CHO-K1; assay type: cell-based; details: reference agonist
T1 construct: expressed in transfected cells; host or cells: CHO-K1

UTR2 = target: T2, UTR2 (Homo sapiens, UniProt Q9UKP6); test: GPCR panel (control), Arrestin, CHO-K1; assay type: cell-based; details: reference agonist
T2 construct: expressed in transfected cells; host or cells: CHO-K1

F2RL3 = target: T3, F2RL3 (Homo sapiens, UniProt Q96RI0); test: GPCR panel (control), Arrestin, CHO-K1; assay type: cell-based; details: reference agonist
T3 construct: expressed in transfected cells; host or cells: CHO-K1

CALCR = CALCR (Homo sapiens, UniProt P30988); details: reference agonist, U2OS, Arrestin
CALCR + RAMP2 = CALCR + RAMP2 (Homo sapiens, UniProt O60895+P30988); details: reference agonist, CALCR + RAMP2, CHO-K1, Arrestin
CALCR + RAMP3 = CALCR + RAMP3 (Homo sapiens, UniProt O60896+P30988); details: reference agonist, CALCR + RAMP3, CHO-K1, Arrestin
EDNRA = EDNRA (Homo sapiens, UniProt P25101); details: reference agonist, CHO-K1, Arrestin
EDNRB = target: T4, EDNRB (Homo sapiens, UniProt P24530); test: GPCR panel (control), Arrestin, CHO-K1; assay type: cell-based; details: reference agonist
T4 construct: expressed in transfected cells; host or cells: CHO-K1

GLP1R = GLP1R (Homo sapiens, UniProt P43220); details: reference agonist, CHO-K1, Arrestin
HSR1A = HSR1A (Homo sapiens, UniProt Q92847); details: reference agonist, U2OS, Arrestin
HCRTR1 = target: T5, HCRTR1 (Homo sapiens, UniProt O43613); test: GPCR panel (control), Arrestin, CHO-K1; assay type: cell-based; details: reference agonist
T5 construct: expressed in transfected cells; host or cells: CHO-K1

ADCYAP1R1 = ADCYAP1R1 (Homo sapiens, UniProt P41586); details: reference agonist, ADCYAP1R1, CHO-K1, Arrestin
PTHR1 = target: T6, PTHR1 (Homo sapiens, UniProt Q03431); test: GPCR panel (control), Arrestin, CHO-K1; assay type: cell-based; details: reference agonist
T6 construct: expressed in transfected cells; host or cells: CHO-K1

BDKRB2 = target: T7, BDKRB2 (Homo sapiens, UniProt P30411); test: GPCR panel (control), Arrestin, CHO-K1; assay type: cell-based; details: reference agonist
T7 construct: expressed in transfected cells; host or cells: CHO-K1

RXFP3 = target: T8, RXFP3 (Homo sapiens, UniProt Q9NSD7); test: GPCR panel (control), Arrestin, U2OS; assay type: cell-based; details: reference agonist
T8 construct: expressed in transfected cells; host or cells: U2OS

F2RL1 = target: T9, F2RL1 (Homo sapiens, UniProt P55085); test: GPCR panel (control), Arrestin, U2OS; assay type: cell-based; details: reference agonist
T9 construct: expressed in transfected cells; host or cells: U2OS

CRHR2 = target: T10, CRHR2 (Homo sapiens, UniProt Q13324); test: GPCR panel (control), Arrestin, CHO-K1; assay type: cell-based; details: reference agonist
T10 construct: expressed in transfected cells; host or cells: CHO-K1

SCTR = target: T11, SCTR (Homo sapiens, UniProt P47872); test: GPCR panel (control), Arrestin, CHO-K1; assay type: cell-based; details: reference agonist
T11 construct: expressed in transfected cells; host or cells: CHO-K1

SSTR2 = SSTR2 (Homo sapiens, UniProt P30874); details: reference agonist, SSTR2, CHO-K1, Arrestin
SSTR5 = SSTR5 (Homo sapiens, UniProt P35346); details: reference agonist, SSTR5, CHO-K1, Arrestin
F2R = target: T12, F2R (Homo sapiens, UniProt P25116); test: GPCR panel (control), Arrestin, CHO-K1; assay type: cell-based; details: reference agonist
T12 construct: expressed in transfected cells; host or cells: CHO-K1

PTHR2 = target: T13, PTHR2 (Homo sapiens, UniProt P49190); test: GPCR panel (control), Arrestin, CHO-K1; assay type: cell-based; details: reference agonist
T13 construct: expressed in transfected cells; host or cells: CHO-K1

FPR1 = target: T14, FPR1 (Homo sapiens, UniProt P21462); test: GPCR panel (control), Arrestin, CHO-K1; assay type: cell-based; details: reference agonist
T14 construct: expressed in transfected cells; host or cells: CHO-K1

FPRL1 = target: T15, FPRL1 (Homo sapiens, UniProt P25090); test: GPCR panel (control), Arrestin, CHO-K1; assay type: cell-based; details: reference agonist
T15 construct: expressed in transfected cells; host or cells: CHO-K1

CCR9 = test: GPCR panel (control), Arrestin, CHO-K1; assay type: cell-based, human; details: reference agonist

DRD2S, sequence (P14416 other isoform, or with tags, fused parts or gaps): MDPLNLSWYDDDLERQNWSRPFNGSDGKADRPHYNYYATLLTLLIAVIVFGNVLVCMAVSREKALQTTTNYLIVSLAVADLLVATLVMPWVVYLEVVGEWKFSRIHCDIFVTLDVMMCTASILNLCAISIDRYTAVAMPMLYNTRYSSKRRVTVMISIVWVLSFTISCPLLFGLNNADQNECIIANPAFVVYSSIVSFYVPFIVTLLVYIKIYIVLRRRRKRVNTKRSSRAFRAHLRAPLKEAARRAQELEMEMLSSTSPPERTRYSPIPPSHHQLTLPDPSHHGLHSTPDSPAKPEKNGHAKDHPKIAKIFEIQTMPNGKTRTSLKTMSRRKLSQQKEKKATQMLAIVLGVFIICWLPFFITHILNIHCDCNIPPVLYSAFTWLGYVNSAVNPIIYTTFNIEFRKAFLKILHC
T10 sequence (Q13324 whole entry): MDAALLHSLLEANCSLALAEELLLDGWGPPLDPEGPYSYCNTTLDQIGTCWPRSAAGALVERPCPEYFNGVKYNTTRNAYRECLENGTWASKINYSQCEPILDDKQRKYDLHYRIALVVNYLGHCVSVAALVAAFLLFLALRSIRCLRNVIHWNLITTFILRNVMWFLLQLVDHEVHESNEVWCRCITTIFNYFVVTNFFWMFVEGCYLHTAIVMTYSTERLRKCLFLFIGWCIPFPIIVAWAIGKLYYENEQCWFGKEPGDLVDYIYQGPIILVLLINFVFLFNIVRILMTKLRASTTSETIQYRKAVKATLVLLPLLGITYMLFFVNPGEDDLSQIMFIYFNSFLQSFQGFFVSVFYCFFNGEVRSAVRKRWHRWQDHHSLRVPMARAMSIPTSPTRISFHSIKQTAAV
CHRM5, sequence (P08912 whole entry): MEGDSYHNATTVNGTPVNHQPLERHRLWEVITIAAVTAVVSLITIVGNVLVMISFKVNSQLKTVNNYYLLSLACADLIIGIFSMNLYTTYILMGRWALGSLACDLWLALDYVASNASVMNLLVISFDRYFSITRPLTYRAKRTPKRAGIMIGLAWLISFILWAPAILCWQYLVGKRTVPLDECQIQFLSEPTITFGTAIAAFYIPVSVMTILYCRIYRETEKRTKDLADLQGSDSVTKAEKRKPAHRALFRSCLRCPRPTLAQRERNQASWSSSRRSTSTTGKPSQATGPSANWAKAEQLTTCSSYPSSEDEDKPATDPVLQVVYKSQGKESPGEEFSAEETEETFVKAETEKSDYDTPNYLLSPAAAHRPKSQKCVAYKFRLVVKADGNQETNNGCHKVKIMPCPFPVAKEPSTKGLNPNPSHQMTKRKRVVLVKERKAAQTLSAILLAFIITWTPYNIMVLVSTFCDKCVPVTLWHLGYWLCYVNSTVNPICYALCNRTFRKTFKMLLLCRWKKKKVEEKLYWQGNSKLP
T7 sequence (P30411 whole entry): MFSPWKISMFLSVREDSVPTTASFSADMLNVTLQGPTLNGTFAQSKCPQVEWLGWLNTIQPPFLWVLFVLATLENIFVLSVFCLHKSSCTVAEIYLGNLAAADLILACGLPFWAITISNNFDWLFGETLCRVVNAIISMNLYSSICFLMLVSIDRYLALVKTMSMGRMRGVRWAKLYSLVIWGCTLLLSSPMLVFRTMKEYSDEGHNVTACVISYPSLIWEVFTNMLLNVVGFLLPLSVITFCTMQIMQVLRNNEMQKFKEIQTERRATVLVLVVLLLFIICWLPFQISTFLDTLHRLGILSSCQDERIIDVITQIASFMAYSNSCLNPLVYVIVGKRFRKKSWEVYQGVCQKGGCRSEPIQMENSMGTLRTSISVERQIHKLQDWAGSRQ
T3 sequence (Q96RI0 18-385): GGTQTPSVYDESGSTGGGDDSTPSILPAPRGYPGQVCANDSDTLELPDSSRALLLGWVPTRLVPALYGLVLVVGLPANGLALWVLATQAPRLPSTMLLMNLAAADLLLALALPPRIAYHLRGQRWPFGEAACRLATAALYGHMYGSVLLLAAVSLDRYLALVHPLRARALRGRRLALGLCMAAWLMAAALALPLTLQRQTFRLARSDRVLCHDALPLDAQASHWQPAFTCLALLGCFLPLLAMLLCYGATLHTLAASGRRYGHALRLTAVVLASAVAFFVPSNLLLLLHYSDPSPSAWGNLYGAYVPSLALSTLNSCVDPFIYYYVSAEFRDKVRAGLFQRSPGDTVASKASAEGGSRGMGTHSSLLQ
T15 sequence (P25090 whole entry): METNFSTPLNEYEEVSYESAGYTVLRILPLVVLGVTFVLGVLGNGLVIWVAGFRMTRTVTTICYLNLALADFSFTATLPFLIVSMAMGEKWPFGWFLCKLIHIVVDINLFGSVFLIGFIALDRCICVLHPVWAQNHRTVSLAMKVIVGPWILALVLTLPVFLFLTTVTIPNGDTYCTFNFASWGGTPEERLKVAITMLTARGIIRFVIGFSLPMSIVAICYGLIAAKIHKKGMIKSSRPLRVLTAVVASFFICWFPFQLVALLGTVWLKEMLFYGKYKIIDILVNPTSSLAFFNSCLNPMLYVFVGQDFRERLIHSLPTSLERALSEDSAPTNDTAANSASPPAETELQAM
PTGER3, sequence (P43115 whole entry): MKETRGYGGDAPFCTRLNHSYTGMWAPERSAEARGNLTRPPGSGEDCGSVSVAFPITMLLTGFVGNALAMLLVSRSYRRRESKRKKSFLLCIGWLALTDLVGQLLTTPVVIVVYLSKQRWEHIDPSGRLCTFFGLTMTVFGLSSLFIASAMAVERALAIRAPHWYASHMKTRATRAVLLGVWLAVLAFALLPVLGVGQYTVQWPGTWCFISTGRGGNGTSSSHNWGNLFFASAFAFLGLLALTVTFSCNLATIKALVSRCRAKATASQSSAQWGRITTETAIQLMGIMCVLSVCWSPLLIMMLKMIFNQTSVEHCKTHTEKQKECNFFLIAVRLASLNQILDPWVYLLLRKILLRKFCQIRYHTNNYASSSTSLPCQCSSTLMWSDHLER
SSTR2, sequence (P30874 whole entry): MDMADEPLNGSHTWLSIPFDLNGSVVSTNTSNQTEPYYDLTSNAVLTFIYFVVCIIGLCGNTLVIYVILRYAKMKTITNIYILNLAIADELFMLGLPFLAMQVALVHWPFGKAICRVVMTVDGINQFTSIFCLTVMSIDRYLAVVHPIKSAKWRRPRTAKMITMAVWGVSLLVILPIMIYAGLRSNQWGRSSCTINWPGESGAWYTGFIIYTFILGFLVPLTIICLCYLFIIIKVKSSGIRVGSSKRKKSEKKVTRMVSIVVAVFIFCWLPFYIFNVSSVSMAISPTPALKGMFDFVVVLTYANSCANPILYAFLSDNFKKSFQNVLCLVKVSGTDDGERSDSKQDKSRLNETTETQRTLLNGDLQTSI
HSR1A, sequence (Q92847 whole entry): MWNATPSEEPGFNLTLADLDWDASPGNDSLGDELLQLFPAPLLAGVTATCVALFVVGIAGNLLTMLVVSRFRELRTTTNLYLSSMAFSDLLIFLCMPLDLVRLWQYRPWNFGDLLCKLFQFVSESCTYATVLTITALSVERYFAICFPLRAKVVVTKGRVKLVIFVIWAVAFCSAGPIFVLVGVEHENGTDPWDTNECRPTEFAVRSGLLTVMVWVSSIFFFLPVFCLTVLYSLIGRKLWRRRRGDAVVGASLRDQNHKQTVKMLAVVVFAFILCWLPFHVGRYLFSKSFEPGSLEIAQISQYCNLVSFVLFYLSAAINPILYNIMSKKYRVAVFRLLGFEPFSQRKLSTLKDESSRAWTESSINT
T4 sequence (P24530 27-442): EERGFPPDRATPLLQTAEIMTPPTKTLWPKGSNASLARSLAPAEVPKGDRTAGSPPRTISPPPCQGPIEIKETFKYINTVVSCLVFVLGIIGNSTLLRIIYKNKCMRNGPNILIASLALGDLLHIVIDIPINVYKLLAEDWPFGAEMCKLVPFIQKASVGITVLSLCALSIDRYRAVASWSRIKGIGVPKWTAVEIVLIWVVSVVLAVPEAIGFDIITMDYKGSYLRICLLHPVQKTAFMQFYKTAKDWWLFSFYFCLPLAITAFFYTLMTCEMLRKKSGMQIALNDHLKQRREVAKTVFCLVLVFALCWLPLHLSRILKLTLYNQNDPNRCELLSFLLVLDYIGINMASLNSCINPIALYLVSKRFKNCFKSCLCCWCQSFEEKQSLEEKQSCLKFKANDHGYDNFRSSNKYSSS
PTGER2, sequence (P43116 whole entry): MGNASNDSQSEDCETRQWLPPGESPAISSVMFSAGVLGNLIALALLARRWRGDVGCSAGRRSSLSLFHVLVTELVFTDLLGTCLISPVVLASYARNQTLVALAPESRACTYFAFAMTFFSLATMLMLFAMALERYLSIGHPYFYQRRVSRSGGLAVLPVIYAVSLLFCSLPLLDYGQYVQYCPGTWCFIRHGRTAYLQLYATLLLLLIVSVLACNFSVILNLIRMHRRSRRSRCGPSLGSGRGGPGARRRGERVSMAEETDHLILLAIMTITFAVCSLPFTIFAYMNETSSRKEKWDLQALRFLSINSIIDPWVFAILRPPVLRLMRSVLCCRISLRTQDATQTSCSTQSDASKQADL
T2 sequence (Q9UKP6 whole entry): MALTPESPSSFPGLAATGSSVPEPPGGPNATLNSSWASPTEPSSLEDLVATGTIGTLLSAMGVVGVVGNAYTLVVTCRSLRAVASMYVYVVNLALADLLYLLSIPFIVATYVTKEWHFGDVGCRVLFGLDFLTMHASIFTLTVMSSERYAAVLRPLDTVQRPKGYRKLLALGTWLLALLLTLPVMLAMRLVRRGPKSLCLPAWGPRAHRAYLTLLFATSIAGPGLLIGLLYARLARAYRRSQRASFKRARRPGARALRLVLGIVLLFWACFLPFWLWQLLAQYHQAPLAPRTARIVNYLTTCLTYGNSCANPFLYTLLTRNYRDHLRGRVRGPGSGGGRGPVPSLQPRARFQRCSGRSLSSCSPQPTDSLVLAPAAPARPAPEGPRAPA

CC(=O)OCC[N+](C)(C)C [Acetylcholine]
EC80 (CHRM4): 200 µM
EC80 (CHRM5): 150 µM
EC80 (CHRM2): 230 µM

CCCCCCC(C)(C)c1ccc([C@@H]2C[C@H](O)CC[C@H]2CCCO)c(O)c1 [CP55940]
EC80 (CNR1): 0.17 µM
EC80 (CNR2): 0.14 µM

NCCc1ccc(O)c(O)c1 [Dopamine]
EC80 (DRD2L): 18 µM
EC80 (DRD2S): 5.4 µM
EC80 (DRD4): 21 µM

O=C(O)CCc1ccc(NCc2cccc(Oc3ccccc3)c2)cc1 [GW9508]
EC80 (GPR120): 570 µM

NCCc1c[nH]cn1 [Histamine]
EC80 (HRH2): 110 µM

CNC[C@H](O)c1cccc(O)c1 [Phenylephrine]
EC80 (ADRA1B): 10 µM

CCCCC[C@H](O)/C=C/[C@H]1[C@H](O)CC(=O)[C@@H]1C/C=C\CCCC(=O)O [Prostaglandin E2]
EC80 (PTGER2): 42 µM
EC80 (PTGER3): 0.98 µM
EC80 (PTGER4): 0.14 µM

CSCC[C@H](NC(=O)[C@H](CC(C)C)NC(=O)CNC(=O)[C@H](Cc1ccccc1)NC(=O)[C@H](Cc1ccccc1)NC(=O)[C@H](CCC(N)=O)NC(=O)[C@H](CCC(N)=O)NC(=O)[C@@H]1CCCN1C(=O)[C@H](CCCCN)NC(=O)[C@@H]1CCCN1C(=O)[C@@H](N)CCCN=C(N)N)C(N)=O [Substance P]
EC80 (TACR3): 0.92 µM

CC(C)[C@H](NC(=O)[C@@H]1CSSC[C@H](NC(=O)[C@H](CC(=O)O)NC(=O)[C@@H]2CCCN2C(=O)[C@@H](NC(=O)[C@@H](N)CCC(=O)O)[C@@H](C)O)C(=O)N[C@@H](Cc2ccccc2)C(=O)N[C@@H](Cc2c[nH]c3ccccc23)C(=O)N[C@@H](CCCCN)C(=O)N[C@@H](Cc2ccc(O)cc2)C(=O)N1)C(=O)O [Urotensin II]
EC80 (UTR2): 0.031 µM

AYPGKF-NH2
EC80 (F2RL3): 370 µM

Calcitonin
EC80 (CALCR): 1.6 µM
EC80 (CALCR + RAMP2): 0.44 µM
EC80 (CALCR + RAMP3): 8.9 µM

Endothelin-1
EC80 (EDNRA): 0.19 µM

Endothelin-3
EC80 (EDNRB): 0.26 µM

Exendin-4
EC80 (GLP1R): 0.24 µM

Ghrelin
EC80 (HSR1A): 0.38 µM

Orexin A
EC80 (HCRTR1): 0.52 µM

PACAP-27
EC80 (ADCYAP1R1): 0.14 µM

PTH(1-34)
EC80 (PTHR1): 0.28 µM

RPPGFSPFR [Bradykinin]
EC80 (BDKRB2): 0.035 µM

Relaxin-3
EC80 (RXFP3): 3.1 µM

SLIGRL-NH2
EC80 (F2RL1): 24 µM

Sauvagine
EC80 (CRHR2): 0.46 µM

Secretin
EC80 (SCTR): 0.074 µM

Somatostatin 28
EC80 (SSTR2): 0.093 µM
EC80 (SSTR5): 1.3 µM

TFLLR-NH2
EC80 (F2R): 1300 µM

TIP-39
EC80 (PTHR2): 0.13 µM

WKYMVm-NH2
EC80 (FPR1): 0.62 µM
EC80 (FPRL1): 0.067 µM

B1: CCL25 (protein, UniProt O15444 24-150, looked up)
C-C motif chemokine 25: QGVFEDCCLAYHYPIGWAVLRRAWTYRIQEVSGSCNLPAAIFYLPKRHRKVCGNPKSREVQRAMKLLDARNKVFAKLHHNTQTFQAGPHAVKKLSSGNSKLSSSKFSNPISSSKRNVSLLISANSGL
EC80 (CCR9): 14 µM
